Data set [1] is described as follows: Pharmacokinetic study in mice. Type of data set: in vivo, female C57BL/6J mice. The following applies: female, C57BL/6J, mouse, plasma; for clearance: read-out: Cl—obs iv (clearance rate) (converted); for Vd: read-out: Vss iv (distribution volume); for bioavailability: po 10 mg/kg vs iv 5 mg/kg, read-out: F% (absolute bioavailability); for Tmax: median, read-out: Tmax po (time to peak plasma concentration); for Cmax: read-out: Cmax po (peak concentration). In outline: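 Female C57BL/6J mice received compound in 5% DMSO/20% (30% solutol)/75% saline at 10 mg/kg intragastrically (sampling 15 min–24 h) or 5 mg/kg intravenously (sampling 5 min–24 h). Plasma was acetonitrile-precipitated with tolbutamide internal standard and analysed by LC-MS/MS. PK parameters were derived by NCA, with Tmax as a median.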

The target of data set [2] is T1, hERG potassium ion channel (Homo sapiens, UniProt Q12809).
T1 construct: expressed in transfected cells
The experiment in a line: Inhibition of hERG potassium ion channel, whole-cell patch clamp in HEK-293 cells. Type of data set: cell-based. The following applies: HEK-293 cells stably expressing hERG, tail current, room temperature. The procedure: Experimental Example 5: Inhibition of hERG Potassium Ion Channel by Compounds
1.1. An HEK-293 cell line stably expressing the hERG potassium channel was cultured at 37° C. with 5% carbon dioxide in DMEM medium containing 10% fetal bovine serum and 0.8 mg/mL G418. The cell density must not exceed 80%.
1.2. Before patch-clamp testing, cells were dissociated with TrypLE™ Express, and 4×10^3 cells were applied to a coverslip. After 18 h, testing was performed.
2.1. Blank control: DMSO stock solution.
2.2. Positive control: An appropriate amount of cisapride was weighed out and prepared into a 10 mM stock solution using dimethyl sulfoxide (DMSO). The stock solution was aliquoted, and the aliquots were stored at −20° C.
2.3. Compound: An appropriate amount of the compound was weighed out, and the required volume of DMSO was calculated using the formula DMSO volume=actual amount×purity (content)/(molecular weight×theoretical concentration), and measured out using a pipette. The compound that had been weighed out was dissolved in the DMSO that had been measured out using a pipette. Meanwhile, the mass of the DMSO was measured. The actual stock solution concentration was calculated based on the amount of DMSO finally used.
Before hERG channel current testing, the blank control stock solution was diluted with an appropriate amount of extracellular liquid to prepare a working solution. The positive control stock solution and the compound stock solution were diluted with an appropriate amount of extracellular liquid to prepare working solutions. […]
Recording electrodes were prepared from capillary glass tubes using a microelectrode puller. […] Under an inverted microscope, a microelectrode manipulator was used to immerse the electrode in extracellular liquid, and the electrode resistance (Rpip) was recorded. […] Then, slow capacitance compensation was performed, and experimental parameters such as membrane capacitance (Cm) and series resistance (Rs) were recorded. […]

Where [3] appears, read: iv 5 mg/kg, read-out: AUClast iv (0-24 h).
Where [4] appears, read: iv 5 mg/kg, read-out: tz1/2 iv (terminal half-life) (converted).
Setting [5] is: po 10 mg/kg, read-out: AUClast po (0-24 h).
[6] abbreviates: po 10 mg/kg, read-out: tz1/2 po (terminal half-life) (converted).

Each structure is given as a SMILES string. Read-outs that look alike come from different tables or passages of the source.

T1 sequence (Q12809 whole entry): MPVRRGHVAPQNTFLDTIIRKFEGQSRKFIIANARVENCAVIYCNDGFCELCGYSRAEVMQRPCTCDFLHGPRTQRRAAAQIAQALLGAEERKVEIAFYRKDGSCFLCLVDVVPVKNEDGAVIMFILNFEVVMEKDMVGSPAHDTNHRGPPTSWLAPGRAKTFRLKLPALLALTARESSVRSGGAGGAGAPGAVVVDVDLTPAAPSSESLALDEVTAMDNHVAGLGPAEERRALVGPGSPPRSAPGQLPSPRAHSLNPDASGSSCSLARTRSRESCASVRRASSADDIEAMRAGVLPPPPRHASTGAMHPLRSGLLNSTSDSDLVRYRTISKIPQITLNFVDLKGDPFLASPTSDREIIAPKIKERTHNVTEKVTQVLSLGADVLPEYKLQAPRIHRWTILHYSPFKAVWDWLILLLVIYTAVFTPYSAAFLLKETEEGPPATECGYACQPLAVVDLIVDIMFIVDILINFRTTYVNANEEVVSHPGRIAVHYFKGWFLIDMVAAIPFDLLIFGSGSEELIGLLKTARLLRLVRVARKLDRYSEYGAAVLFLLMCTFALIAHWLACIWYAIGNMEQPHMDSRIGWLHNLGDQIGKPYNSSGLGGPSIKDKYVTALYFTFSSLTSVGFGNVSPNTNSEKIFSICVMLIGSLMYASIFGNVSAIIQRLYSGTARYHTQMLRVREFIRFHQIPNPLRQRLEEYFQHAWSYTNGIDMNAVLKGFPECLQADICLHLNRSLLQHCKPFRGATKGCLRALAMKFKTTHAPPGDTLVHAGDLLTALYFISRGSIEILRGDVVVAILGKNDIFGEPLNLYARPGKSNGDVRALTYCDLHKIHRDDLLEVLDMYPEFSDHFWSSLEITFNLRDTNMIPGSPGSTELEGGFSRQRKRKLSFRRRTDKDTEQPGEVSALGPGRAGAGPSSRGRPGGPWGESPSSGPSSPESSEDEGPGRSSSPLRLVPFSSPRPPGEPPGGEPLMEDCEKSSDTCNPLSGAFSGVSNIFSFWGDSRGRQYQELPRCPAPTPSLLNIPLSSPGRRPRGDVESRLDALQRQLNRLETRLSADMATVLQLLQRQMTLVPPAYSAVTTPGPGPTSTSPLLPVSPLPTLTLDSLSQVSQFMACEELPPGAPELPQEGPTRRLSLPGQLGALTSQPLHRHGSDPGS

For orientation: clearance means the volume of plasma or blood freed of the substance per unit of time. Broadly, the bioavailability is the share of a dose that reaches the circulation, judged against a reference dose that is usually intravenous. The term IC50 denotes the concentration that inhibits the measured activity by half. Take `C#Cc1ccc(-c2nnc(N[C@@H]3CCCN(C)C3)c(=O)n2C)c(O)c1` [Compound 23, (R)-3-(4-ethynyl-2-hydoxyphenyl)-4-methyl-6-((1-methylpiperidin-3-yl)amino)-1,2,4-triazin-5(4H)-one]: in data set [1] (setting [3]), the AUC(0-t) was 3230 ng·h/mL. Further, in data set [1] (iv 5 mg/kg), the clearance is 25.7 mL/min/kg and the Vd turned out to be 1.65 L/kg. For the same compound, in data set [1] (setting [4]), the half-life was 55.2 min. Further, in data set [1], the bioavailability was found to be 85.7%. Also, in data set [1] (po 10 mg/kg), the Tmax came out at 30 min and the Cmax was found to be 3030 ng/mL. For the same compound, in data set [1] (setting [5]), the AUC(0-t) was 5530 ng·h/mL. Moreover, the half-life in data set [1] (setting [6]) was 59 min. For the same compound, the half-inhibitory concentration (IC50) in data set [2] was above 10 µM.

In the case of `C#Cc1ccc(-c2nnc(N[C@@H]3CCCN(CCO)C3)cc2C2CC2)c(O)c1` [Compound 45, (R)-2-(4-Cyclopropyl-6-((1-(2-hydroxyethyl)piperidin-3-yl)amino)pyridazin-3-yl)-5-ethynylphenol], the AUC(0-t) in data set [1] (setting [3]) stood at 11400 ng·h/mL; in data set [1] (setting [5]), 19100 ng·h/mL. In addition, the clearance in data set [1] (iv 5 mg/kg) is 7.27 mL/min/kg. Besides, the Vd in data set [1] (iv 5 mg/kg) was determined as 1.47 L/kg. The half-life in data set [1] (setting [4]) is 214 min; in data set [1] (setting [6]), 191 min. In data set [1], the bioavailability was found to be 83.7%. The Tmax in data set [1] (po 10 mg/kg) amounted to 60 min. The Cmax in data set [1] (po 10 mg/kg) is 4130 ng/mL.

Consider `C#Cc1ccc(-c2nnc(N[C@@H]3CCCN(C)C3)cc2C(C)C)c(O)c1` [Compound 81, (R)-5-ethynyl-2-(4-isopropyl-6-((1-methylpiperidin-3-yl)amino)pyridazin-3-yl)phenol], for which the IC50 in data set [2] was above 10 µM.

On to `C#Cc1ccc(-c2nnc(N[C@@H]3CCCN(C)C3)c(C#N)c2C)c(O)c1` [Compound 103, (R)-6-(4-ethynyl-2-hydroxyphenyl)-5-methyl-3-((1-methylpiperidin-3-yl)amino)pyridazine-4-carbonitrile], for which, in data set [2], the IC50 is above 10 µM.
